According to patent US9718806B2, “Quinazoline inhibitors of activating mutant forms of epidermal growth factor receptor” (AstraZeneca AB, priority 2013, dated 2017):
Where a name gives a salt, the structure may show the parent alone.

How the values were obtained:
[1] = Assay 2: brain blood barrier penetration assay (short oral absorption model plus in vitro blood and brain binding); format: in vivo; conditions: rat, male Han Wistar rats, oral 2 mg/kg, Kp,uu=AUC (brain)/AUC (blood)×(fu,brain/fu.blood)
Method: Assay 2: Brain Blood Barrier Penetration Assay
It is believed that Kp,uu, the relationship between concentrations of unbound drug in brain and in blood, is the key to prediction of CNS action and should be the main parameter measured and optimized for in drug discovery (Di L et al., Journal of Medicinal Chemistry [2013], 56: 2-12).
In vitro blood and brain binding assay was carried out on a HT-Dialysis plate (Gales Ferry, Conn.) with semi-permeable membrane. Diluted blood (1:1 with DPBS pH7.4) and brain homogenate (1:3 with DPBS pH7.4) were spiked with 5 μM test compound (in triplicate) and dialyzed against equal volume of 150 μL 100 mM PBS buffer (pH7.4) at 37° C. for 4 hours in a slowly rotated plate. At the end of incubation, a 50 μL aliquot from the receiver side and a 5 μL from the donor chamber were taken. The 5 μL sample was further diluted with 45 μL of blank blood or brain homogenate. Paired samples were matrix-matched with either buffer or blank blood/brain homogenate and mixed for 2 min, and then precipitated with 150 μL cold acetonitrile with 100 ng/mL tolbutamide as internal standard. After centrifuging at 4000 rpm for 20 min, supernatant was diluted with 0.1% formic acid aqueous solution and analyzed for LC/MS/MS (API 4000, Applied Biosystems, Foster City). […]. D is dilution factor.
A Short oral absorption (SOA) model is an in-vivo screening model to identify brain penetration of a compound. […]
Standards were prepared by spiking blank blood, brain homogenate and artificial CSF covering 0.2 to 500 ng/mL. […] After 2 min vortex and 5 min centrifugation at 14,000 rpm, supernatant was analyzed by LC/MS/MS (API 4000, Applied Biosystems, Foster City). […] For brain and CSF samples, one standard curve was analyzed along with test samples.
Total brain levels, expressed as brain/blood ratio (Kp) were measured by AUCbrain/AUCblood in rodents after oral administration. Free fraction of test compound in biological matrix was determined by in vitro blood and brain binding assay. Kp,uu was calculated by the following equation: Kp,uu=AUC (brain)/AUC (blood)×(fu,brain/fu.blood).

endogenous p-EGFR = assay: Assay 1: cellular phosphorylation assay, overall statement; format: cell-based, human; conditions: Assay 1, statement on the table
Source text: Assay 1: Cellular Phosphorylation Assay
The human lung cell line NCI-H3255 (L858R) was obtained from the American Type Culture Collection. The NCI-H3255 cells were maintained in BEBM media (Lonza; CC-3171), containing 10% fetal bovine serum (FBS) (Gibco; 10099-141), supplemented with BEGM kit (Lonza; CC-4175). The human lung cell line PC-9 (Exon 19 deletion EGFR) was obtained from the American Type Culture Collection. PC-9 cells were maintained in RPMI 1640 (Gibco; 22400-089), containing 10% fetal bovine serum. The human lung cell line NCI-H838 (EGFR wild type) was obtained from the American Type Culture Collection. NCI-H838 cells were maintained in RPMI 1640 (Gibco; 22400-089), containing 10% fetal bovine serum.
All cells were grown in a humidified incubator at 37° C. with 5% CO2. Assays to measure cellular phosphorylation of endogenous p-EGFR in cell lysates were carried out according to the protocol described in the PathScan® Phospho-EGF Receptor (Tyr1068) Sandwich ELISA Kit (Cell Signalling kit catalogue number #7240).
100 μL of cells were seeded (32000 cells/well) in RPMI 1640+1% fetal bovine serum in Corning Costar, 96 well cell culture plates and incubated at 37° C. with 5% CO2 overnight. Cells were acoustically dosed using a […], with compounds serially diluted in 100% DMSO. Cell plates were incubated for a further 4 h after the compounds were added, (for NCI-H838: rhEGF (R&D catalogue number#236-EG) was added to cell plate with final concentration 100 ng/ml rhEGF to stimulate 5 minutes), then following aspiration of medium, 110 μL IP lysis buffer (IP lysis buffer: add 1:100 phosphatase inhibitor cocktail 2&3 (Sigma catalogue number P5726&P0044), 1:100 protease inhibitor cocktail (Sigma catalogue number P8340) to Pierce IP lysis buffer (Thermo catalogue number #87788)) was added to each well. The plates were put at 4° C. with rotation 300 rpm for 0.5-1 hour. […] 100 μl stop solution (Cell Signalling kit catalogue number#7240) was added to the plates and absorbance read at 450 nm within 30 minutes on SpectraMax M5e plate reader. […]

Kp uu ([1]; brain / blood (unbound))	Structure (SMILES)	Kp uu ([1]; in vivo)	potency compared with gefitinib and erlotinib (endogenous p-EGFR)
–	COc1cc2ncnc(Nc3cccc(Cl)c3F)c2cc1OC(=O)N1CCN(C)C[C@H]1C [Example 1, 4-[(3-Chloro-2-fluorophenyl)amino]-7-methoxyquinazolin-6-yl (2R)-2,4-dimethylpiperazine-1-carboxylate]	1.3	comparable potency to gefitinib and erlotinib
–	COc1cc2ncnc(Nc3cccc(Cl)c3F)c2cc1OC(=O)N1CCN(C)C[C@H]1C [Example 2, 4-[(3-Chloro-2-fluorophenyl)amino]-7-methoxyquinazolin-6-yl (2R)-2,4-dimethylpiperazine-1-carboxylate hydrochloride]	–	comparable potency to gefitinib and erlotinib
1.6	COc1cc2ncnc(Nc3cccc(Cl)c3F)c2cc1OC(=O)N1CCN(C)C[C@@H]1C [Example 3, 4-[(3-Chloro-2-fluorophenyl)amino]-7-methoxyquinazolin-6-yl (2S)-2,4-dimethylpiperazine-1-carboxylate]	–	comparable potency to gefitinib and erlotinib
0.12	CNC(=O)CN1CCC(Oc2cc3c(Nc4cccc(Cl)c4F)ncnc3cc2OC)CC1 [sapitinib, reference compound]	–	–
